The values that follow come from patent publication US8378117B2 (priority 2005, dated 2013).

Like-named read-outs stand apart in the source and are kept apart here.

One experiment addresses T1, CB1 receptor (Homo sapiens, UniProt P21554).
T1 construct: expressed in transfected cells
The experiment in a line: Binding assay for CB1 agonists or inverse agonists (SK-N-MC membranes, [3H]-CP-55,940). The following applies: for inhibition at 1 µM: read-out: CB1 receptor binding percent inhibition, test concentration 1 μM (footnote 1); for inhibition at 0.25 µM: read-out: CB1 receptor binding percent inhibition, test concentration 0.25 μM (footnote 8); for CB1 receptor binding average percent inhibition: value shown is an average percent inhibition (footnote 5), concentration not given. Summed up:
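Membranes from SK-N-MC cells stably expressing human CB1 incubated with compound and [3H]-CP-55,940 ([…]) for 90 min at 30° C in Tris-HCl pH 7.5, MgCl2, EDTA, fatty-acid-free BSA. Non-specific binding defined with 10 uM WIN 55,212; filtration, scintillation count; IC50 by linear regression.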

A further experiment concerns the target T2, CB2 receptor (Homo sapiens, UniProt P34972).
T2 construct: expressed in transfected cells
Description: Binding assay for CB2 agonists or inverse agonists (SK-N-MC membranes, [3H]-CP-55,940). The following applies: for CB2 receptor binding percent inhibition: test concentration not stated. Summed up: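 Membranes from SK-N-MC cells stably expressing human CB2 were incubated with radioligand and test compounds for 90 min at 30 °C in Tris-HCl buffer, pH 7.5, with MgCl2, EDTA and fatty-acid-free BSA. Filter-bound radioactivity was counted; IC50 was derived by linear regression of percent inhibition.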

[1] abbreviates: test concentration 0.25 μM (footnote 8), read-out: CB2 receptor binding percent inhibition.
Setting [2] is: Cannabinoid CB2 Receptor Binding IC50, calculated by linear regression from percent inhibition at various test concentrations.

T1 sequence (P21554 whole entry): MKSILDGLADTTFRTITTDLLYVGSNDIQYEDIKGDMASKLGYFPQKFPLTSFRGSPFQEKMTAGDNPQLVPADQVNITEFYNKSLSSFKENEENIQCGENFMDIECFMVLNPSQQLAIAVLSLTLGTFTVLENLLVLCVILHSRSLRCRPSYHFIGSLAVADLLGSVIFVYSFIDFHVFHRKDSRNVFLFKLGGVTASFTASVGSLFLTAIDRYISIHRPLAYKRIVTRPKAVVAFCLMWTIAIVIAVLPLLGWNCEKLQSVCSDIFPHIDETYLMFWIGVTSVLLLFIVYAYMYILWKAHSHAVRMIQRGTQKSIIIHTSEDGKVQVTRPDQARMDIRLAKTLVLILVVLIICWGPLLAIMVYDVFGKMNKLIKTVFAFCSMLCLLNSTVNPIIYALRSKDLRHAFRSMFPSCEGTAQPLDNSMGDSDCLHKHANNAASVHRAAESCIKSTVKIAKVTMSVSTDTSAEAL
T2 sequence (P34972 whole entry): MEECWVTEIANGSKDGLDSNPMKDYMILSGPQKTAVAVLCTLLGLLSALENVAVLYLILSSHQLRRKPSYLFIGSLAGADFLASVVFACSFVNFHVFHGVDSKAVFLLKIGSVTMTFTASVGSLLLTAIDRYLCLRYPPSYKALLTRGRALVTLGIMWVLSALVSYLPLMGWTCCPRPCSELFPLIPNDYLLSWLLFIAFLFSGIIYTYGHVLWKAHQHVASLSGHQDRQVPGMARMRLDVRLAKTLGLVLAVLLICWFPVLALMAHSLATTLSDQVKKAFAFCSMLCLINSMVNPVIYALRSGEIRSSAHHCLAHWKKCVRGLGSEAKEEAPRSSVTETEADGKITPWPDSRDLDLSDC

In the case of `O=C(NCc1ccccc1)c1nn(C2CCCCC2)c2c1CCCCC2Cc1ccc(F)cc1` (stereo not drawn) [Cpd 61, 1-cyclohexyl-8-(4-fluoro-benzyl)-1,4,5,6,7,8-hexahydro-cycloheptapyrazole-3-carboxylic acid benzylamide], at CB1 receptor, the inhibition at 1 µM turned out to be 36%. Moreover, on CB2 receptor, the “CB2 receptor binding percent inhibition” value is listed as 71%.
On the same counts, the results for `O=C(NN1CCCCC1)c1nn(C2CCCCC2)c2c1CCCCC2Cc1ccc(F)cc1` (stereo not drawn) [Cpd 62, 1-cyclohexyl-8-(4-fluoro-benzyl)-1,4,5,6,7,8-hexahydro-cycloheptapyrazole-3-carboxylic acid piperidin-1-ylamide] are 5% and 5%.
Take `COC(=O)[C@H](Cc1ccc(F)cc1)NC(=O)c1nn(C2CCCCC2)c2c1CCCCC2Cc1ccc(F)cc1` (stereo partly drawn) [Cpd 63, (2S)-2-{[1-cyclohexyl-8-(4-fluoro-benzyl)-1,4,5,6,7,8-hexahydro-cycloheptapyrazole-3-carbonyl]-amino}-3-(4-fluoro-phenyl)-propionic acid methyl ester]: the inhibition at 1 µM on CB1 receptor is 29%. In addition, the “CB2 receptor binding percent inhibition” value at CB2 receptor is on record as 69%.
With `C[C@H](NC(=O)c1nn(C2CCCCC2)c2c1CCCCC2Cc1ccc(F)cc1)c1ccccc1` (stereo partly drawn) [Cpd 64, 1-cyclohexyl-8-(4-fluoro-benzyl)-1,4,5,6,7,8-hexahydro-cycloheptapyrazole-3-carboxylic acid [(1S)-1-phenyl-ethyl]-amide], the inhibition at 1 µM on CB1 receptor worked out at 51%; on CB2 receptor (test concentration 1 μM (footnote 1), read-out: CB2 receptor binding percent inhibition), 70%. The IC50 at CB2 receptor (calculated by linear regression from percent inhibition at various test concentrations, read-out: Cannabinoid CB2 Receptor Binding IC50) is 600 nM.
In the case of `O=C(NCc1ccc(C(F)(F)F)cc1)c1nn(C2CCCCC2)c2c1CCCCC2Cc1ccc(F)cc1` (stereo not drawn) [Cpd 65, 1-cyclohexyl-8-(4-fluoro-benzyl)-1,4,5,6,7,8-hexahydro-cycloheptapyrazole-3-carboxylic acid 4-trifluoromethyl-benzylamide], the inhibition at 1 µM at CB1 receptor came out at 29%. Moreover, the “CB2 receptor binding percent inhibition” value at CB2 receptor is given as 52%.
For `O=C(N[C@@H](CO)c1ccccc1)c1nn(C2CCCCC2)c2c1CCCC[C@@H]2Cc1ccc(F)cc1` [Cpd 66, (8R)-1-cyclohexyl-8-(4-fluoro-benzyl)-1,4,5,6,7,8-hexahydro-cycloheptapyrazole-3-carboxylic acid [(1R)-2-hydroxy-1-phenyl-ethyl]-amide], on CB1 receptor, the inhibition at 1 µM was determined as 16%. Also, the “CB2 receptor binding percent inhibition” value at CB2 receptor amounted to 33%.
`O=C(NN1CCCCC1)c1nn(Cc2ccccc2)c2c1CCCCC2c1ccccc1` (stereo not drawn) [Cpd 68, 1-benzyl-8-phenyl-1,4,5,6,7,8-hexahydro-cycloheptapyrazole-3-carboxylic acid piperidin-1-ylamide]: the inhibition at 0.25 µM at CB1 receptor was 0%; on CB2 receptor (read-out: CB2 receptor binding percent inhibition, test concentration 0.25 μM (footnote 8)), 27%.
Regarding `O=C(NCc1cccc(C(F)(F)F)c1)c1nn(Cc2ccccc2)c2c1CCCCC2c1ccccc1` (stereo not drawn) [Cpd 69, 1-benzyl-8-phenyl-1,4,5,6,7,8-hexahydro-cycloheptapyrazole-3-carboxylic acid 3-trifluoromethyl-benzylamide], the inhibition at 0.25 µM was found to be 23% on CB1 receptor and 12% at CB2 receptor (setting [1]).
As to `O=C(NC1CCC1)c1nn(-c2ccc(Cl)cc2Cl)c2c1CCCCC2Cc1ccc(F)cc1` (stereo not drawn) [Cpd 70, 1-(2,4-dichloro-phenyl)-8-(4-fluoro-benzyl)-1,4,5,6,7,8-hexahydro-cycloheptapyrazole-3-carboxylic acid cyclobutylamide], on CB1 receptor, the “CB1 receptor binding average percent inhibition” value is given as “^(5)37%”. Moreover, the “CB2 receptor binding percent inhibition” value on CB2 receptor stood at 3%.
In the same order, the values of `CC12CCC(C1)C(C)(C)[C@H]2NC(=O)c1nn(-c2ccc(Cl)cc2Cl)c2c1CCCCC2Cc1ccc(F)cc1` (stereo partly drawn) [Cpd 71, 1-(2,4-dichloro-phenyl)-8-(4-fluoro-benzyl)-1,4,5,6,7,8-hexahydro-cycloheptapyrazole-3-carboxylic acid [(2S)-1,3,3-trimethyl-bicyclo[2.2.1]hept-2-yl]-amide] are “^(5)43%” and 32%.
As for `COC(=O)[C@H](Cc1ccc(F)cc1)NC(=O)c1nn(-c2ccc(Cl)cc2Cl)c2c1CCCCC2Cc1ccc(F)cc1` (stereo partly drawn) [Cpd 72, (2S)-2-{[1-(2,4-dichloro-phenyl)-8-(4-fluoro-benzyl)-1,4,5,6,7,8-hexahydro-cycloheptapyrazole-3-carbonyl]-amino}-3-(4-fluoro-phenyl)-propionic acid methyl ester], on CB1 receptor, the “CB1 receptor binding average percent inhibition” value was “^(5)38%”. In addition, the “CB2 receptor binding percent inhibition” value on CB2 receptor is 10%.
Regarding `COC(=O)[C@H](Cc1ccc(F)cc1)NC(=O)c1nn(C2CCCCC2)c2c1CCCCC2Cc1cccc(F)c1` (stereo partly drawn) [Cpd 73, (2S)-2-{[1-cyclohexyl-8-(3-fluoro-benzyl)-1,4,5,6,7,8-hexahydro-cycloheptapyrazole-3-carbonyl]-amino}-3-(4-fluoro-phenyl)-propionic acid methyl ester], the “CB1 receptor binding average percent inhibition” value at CB1 receptor is on record as “^(5)24%”. Further, on CB2 receptor, the “CB2 receptor binding percent inhibition” value came to 8%.
Regarding `CCOC(=O)[C@H]1C2C=CC(C2)[C@H]1NC(=O)c1nn(C2CCCCC2)c2c1CCCCC2Cc1cccc(F)c1` (stereo partly drawn) [Cpd 74, (2S,3R)-3-{[1-cyclohexyl-8-(3-fluoro-benzyl)-1,4,5,6,7,8-hexahydro-cycloheptapyrazole-3-carbonyl]-amino}-bicyclo[2.2.1]hept-5-ene-2-carboxylic acid ethyl ester], on CB1 receptor, the “CB1 receptor binding average percent inhibition” value is reported as “^(5)1%”. The “CB2 receptor binding percent inhibition” value at CB2 receptor is reported as 10%.
With `C[C@H](NC(=O)c1nn(-c2ccc(Cl)cc2Cl)c2c1CCCCC2Cc1ccc(Cl)cc1)c1ccccc1` (stereo partly drawn) [Cpd 76, 8-(4-chloro-benzyl)-1-(2,4-dichloro-phenyl)-1,4,5,6,7,8-hexahydro-cycloheptapyrazole-3-carboxylic acid [(1S)-1-phenyl-ethyl]-amide], the “CB1 receptor binding average percent inhibition” value on CB1 receptor is on record as “^(5)44%”. In addition, the “CB2 receptor binding percent inhibition” value at CB2 receptor was 38%.
As to `COC(=O)[C@@H](Cc1ccc(O)cc1)NC(=O)c1nn(C2CCCCC2)c2c1CCCCC2Cc1cccc(F)c1` (stereo partly drawn) [Cpd 82, (2R)-2-{[1-cyclohexyl-8-(3-fluoro-benzyl)-1,4,5,6,7,8-hexahydro-cycloheptapyrazole-3-carbonyl]-amino}-3-(4-hydroxy-phenyl)-propionic acid methyl ester], the IC50 on CB1 receptor (calculated by linear regression from percent inhibition at various test concentrations, read-out: Cannabinoid CB1 Receptor Binding IC50) is 1000 nM; at CB2 receptor (setting [2]), 60 nM. The “CB1 receptor binding average percent inhibition” value at CB1 receptor came to 46%. The “CB2 receptor binding average percent inhibition” value at CB2 receptor (value shown is an average percent inhibition (footnote 5), concentration not given) came out at 88%.
Take `O=C(NCC(F)(F)F)c1nn(Cc2ccccc2)c2c1CCCCC2c1ccccc1` (stereo not drawn) [Cpd 86, 1-benzyl-8-phenyl-1,4,5,6,7,8-hexahydro-cycloheptapyrazole-3-carboxylic acid (2,2,2-trifluoro-ethyl)-amide]: the values for the inhibition at 0.25 µM on CB1 receptor and on CB2 receptor (setting [1]) were 0% and 22%, respectively.
In the case of `COC(=O)[C@@H](Cc1ccc(F)cc1)NC(=O)c1nn(Cc2ccccc2)c2c1CCCCC2c1ccccc1` (stereo partly drawn) [Cpd 87, (2R)-2-[(1-benzyl-8-phenyl-1,4,5,6,7,8-hexahydro-cycloheptapyrazole-3-carbonyl)-amino]-3-(4-fluoro-phenyl)-propionic acid methyl ester], the results for the inhibition at 0.25 µM on CB1 receptor and at CB2 receptor (setting [1]) were 4% and 0%, respectively.
Regarding `CCOC(=O)[C@H]1C2C=CC(C2)[C@H]1NC(=O)c1nn(C2CCCCC2)c2c1CCCCC2Cc1ccc(F)cc1` (stereo partly drawn) [Cpd 88, (2S,3R)-3-{[1-cyclohexyl-8-(4-fluoro-benzyl)-1,4,5,6,7,8-hexahydro-cycloheptapyrazole-3-carbonyl]-amino}-bicyclo[2.2.1]hept-5-ene-2-carboxylic acid ethyl ester], at CB1 receptor, the inhibition at 1 µM was found to be 2%. Also, the “CB2 receptor binding percent inhibition” value on CB2 receptor was 32%.
`O=C(NN1CCOCC1)c1nn(C2CCCCC2)c2c1CCCCC2Cc1ccc(F)cc1` (stereo not drawn) [Cpd 89, 1-cyclohexyl-8-(4-fluoro-benzyl)-1,4,5,6,7,8-hexahydro-cycloheptapyrazole-3-carboxylic acid morpholin-4-ylamide]: on CB1 receptor, the inhibition at 1 µM was 11%. Besides, the “CB2 receptor binding percent inhibition” value on CB2 receptor worked out at 0%.
Turning to `O=C(NN1CCOCC1)c1nn(C2CCCCC2)c2c1CCCCC2Cc1cccc(F)c1` (stereo not drawn) [Cpd 90, 1-cyclohexyl-8-(3-fluoro-benzyl)-1,4,5,6,7,8-hexahydro-cycloheptapyrazole-3-carboxylic acid morpholin-4-ylamide], the inhibition at 1 µM on CB1 receptor turned out to be 1%. In addition, the “CB2 receptor binding percent inhibition” value on CB2 receptor was determined as 2%.
Turning to `COC(=O)[C@@H](Cc1ccc(O)cc1)NC(=O)c1nn(-c2ccc(F)cc2F)c2c1CCCCC2Cc1cccc(F)c1` (stereo partly drawn) [Cpd 95, (2R)-2-{[1-(2,4-difluoro-phenyl)-8-(3-fluoro-benzyl)-1,4,5,6,7,8-hexahydro-cycloheptapyrazole-3-carbonyl]-amino}-3-(4-hydroxy-phenyl)-propionic acid methyl ester], at CB1 receptor, the inhibition at 1 µM turned out to be 36%. Moreover, the “CB2 receptor binding percent inhibition” value on CB2 receptor was found to be 35%.
As for `CC12CCC(C1)C(C)(C)[C@H]2NC(=O)c1nn(-c2ccc(F)cc2F)c2c1CCCCC2Cc1ccc(F)cc1` (stereo partly drawn) [Cpd 97, 1-(2,4-difluoro-phenyl)-8-(4-fluoro-benzyl)-1,4,5,6,7,8-hexahydro-cycloheptapyrazole-3-carboxylic acid [(2S)-1,3,3-trimethyl-bicyclo[2.2.1]hept-2-yl]-amide], the inhibition at 1 µM stood at 38% on CB1 receptor and 71% on CB2 receptor (read-out: CB2 receptor binding percent inhibition, test concentration 1 μM (footnote 1)). Moreover, the IC50 at CB2 receptor (setting [2]) is 300 nM.

By IC50 is commonly meant the concentration needed to halve the response being measured.
